According to the supplement of paper PMC8671470:
± gives the standard deviation of the averaged measurements.

Experiments:
Test in all cases: cell viability (% survival relative to DMSO control); higher = less cytotoxic
Details in all cases: 72 h
HL-60 = system: HL-60
Summary of the method: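 HL-60 cells grown in RPMI 1640 with 10% FBS were rescreened against the full library in 384-well plates, in duplicate, at five tenfold concentrations from 1 to 10,000 nM, alongside DMSO or 100 nM of one of three metabolic inhibitors for 72 h at 37 °C, 5% CO2. Reference wells contained DMSO or 10 μM proteasome inhibitor. Viability was read with CellTiter-Glo and normalised to these reference wells, and where reported, area under the curve was taken from four-parameter log-logistic fits in drc and PharmacoGx.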

[1] = system: myeloid leukemia patient primary cells Pat.10
Summary of the method: (§1)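 Mononuclear cells from patients with AML or CML were thawed, purified on Ficoll and placed in RPMI 1640 with 10% FBS at 10,000 cells/well on 384-well plates. The plates came pre-printed with 70 compounds at five tenfold concentrations spanning 1–10,000 nM, in duplicate, and cells were exposed for 72 h. CellTiter-Glo gave viability, scaled between DMSO wells and wells with 10 μM proteasome inhibitor. Where reported, area under the curve was obtained from log-logistic fits with four parameters using the drc and PharmacoGx R packages.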

[2] = system: myeloid leukemia patient primary cells Pat.12
Summary of the method: as §1

[3] = system: myeloid leukemia patient primary cells Pat.5
Summary of the method: as §1

[4] = system: myeloid leukemia patient primary cells Pat.3
Summary of the method: as §1

[5] = system: myeloid leukemia patient primary cells Pat.6
Summary of the method: as §1

[6] = system: myeloid leukemia patient primary cells Pat.15
Summary of the method: as §1

[7] = system: myeloid leukemia patient primary cells Pat.13
Summary of the method: as §1

[8] = system: myeloid leukemia patient primary cells Pat.8
Summary of the method: as §1

[9] = system: myeloid leukemia patient primary cells Pat.1
Summary of the method: as §1

[10] = system: myeloid leukemia patient primary cells Pat.4
Summary of the method: as §1

[11] = system: myeloid leukemia patient primary cells Pat.2
Summary of the method: as §1

[12] = system: myeloid leukemia patient primary cells Pat.11
Summary of the method: as §1

[13] = system: myeloid leukemia patient primary cells Pat.14
Summary of the method: as §1

[14] = system: myeloid leukemia patient primary cells Pat.9
Summary of the method: as §1

[15] = system: myeloid leukemia patient primary cells Pat.7
Summary of the method: as §1

## CN1CCN(CCCN2c3ccccc3Sc3ccc(C(F)(F)F)cc32)CC1 [Trifluoperazine]
HL-60; 0.001 µM, co-treatment: AZD3965 100 nM
  cell viability: 101 ± 4.4%
HL-60; 0.001 µM, co-treatment: DMSO vehicle
  cell viability: 101.2 ± 0.65%
HL-60; 0.001 µM, co-treatment: GSK2194069 100 nM
  cell viability: 94 ± 5.5%
HL-60; 0.001 µM, co-treatment: pictilisib 100 nM
  cell viability: 97 ± 1.4%
HL-60; 0.01 µM, co-treatment: AZD3965 100 nM
  cell viability: 100 ± 3.1%
HL-60; 0.01 µM, co-treatment: DMSO vehicle
  cell viability: 103 ± 3.3%
HL-60; 0.01 µM, co-treatment: GSK2194069 100 nM
  cell viability: 101 ± 10%
HL-60; 0.01 µM, co-treatment: pictilisib 100 nM
  cell viability: 95.9 ± 4.1%
HL-60; 0.1 µM, co-treatment: AZD3965 100 nM
  cell viability: 97.8 ± 3.9%
HL-60; 0.1 µM, co-treatment: DMSO vehicle
  cell viability: 102 ± 2.1%
HL-60; 0.1 µM, co-treatment: GSK2194069 100 nM
  cell viability: 96 ± 7.1%
HL-60; 0.1 µM, co-treatment: pictilisib 100 nM
  cell viability: 108 ± 18%
HL-60; 1 µM, co-treatment: AZD3965 100 nM
  cell viability: 101 ± 6%
HL-60; 1 µM, co-treatment: DMSO vehicle
  cell viability: 102 ± 5.6%
HL-60; 1 µM, co-treatment: GSK2194069 100 nM
  cell viability: 101 ± 4.1%
HL-60; 1 µM, co-treatment: pictilisib 100 nM
  cell viability: 97.2 ± 18%
HL-60; 10 µM, co-treatment: AZD3965 100 nM
  cell viability: 81.7 ± 4.7%
HL-60; 10 µM, co-treatment: DMSO vehicle
  cell viability: 90.6 ± 3.6%
HL-60; 10 µM, co-treatment: GSK2194069 100 nM
  cell viability: 70.4 ± 2.5%
HL-60; 10 µM, co-treatment: pictilisib 100 nM
  cell viability: 47.7 ± 3.9%
[1]; 1 nM
  cell viability: 55.5%
[1]; 10 nM
  cell viability: 91.7%
[1]; 100 nM
  cell viability: 70.3%
[1]; 1000 nM
  cell viability: 13.3%
[1]; 10000 nM
  cell viability: 9.9%
[2]; 1 nM
  cell viability: 95.7%
[2]; 10 nM
  cell viability: 89.5%
[2]; 100 nM
  cell viability: 95.9%
[2]; 1000 nM
  cell viability: 87%
[2]; 10000 nM
  cell viability: 38.3%
[3]; 1 nM
  cell viability: 99.9%
[3]; 10 nM
  cell viability: 49.2%
[3]; 100 nM
  cell viability: 88%
[3]; 1000 nM
  cell viability: 0.912%
[3]; 10000 nM
  cell viability: 3.33%
[4]; 1 nM
  cell viability: 99.7%
[4]; 10 nM
  cell viability: 80.7%
[4]; 100 nM
  cell viability: 65.1%
[4]; 1000 nM
  cell viability: 11.8%
[4]; 10000 nM
  cell viability: 0.738%
[5]; 1 nM
  cell viability: 98.8%
[5]; 10 nM
  cell viability: 94.2%
[5]; 100 nM
  cell viability: 97.8%
[5]; 1000 nM
  cell viability: 63.5%
[5]; 10000 nM
  cell viability: 23.8%
[6]; 1 nM
  cell viability: 98.2%
[6]; 10 nM
  cell viability: 91.9%
[6]; 100 nM
  cell viability: > 100%
[6]; 1000 nM
  cell viability: 78.4%
[6]; 10000 nM
  cell viability: 45.9%
[7]; 1 nM
  cell viability: 90.5%
[7]; 10 nM
  cell viability: 90.8%
[7]; 100 nM
  cell viability: 99.3%
[7]; 1000 nM
  cell viability: 56.4%
[7]; 10000 nM
  cell viability: 39.1%
[8]; 1 nM
  cell viability: 80%
[8]; 10 nM
  cell viability: 88.9%
[8]; 100 nM
  cell viability: 91.3%
[8]; 1000 nM
  cell viability: 69.8%
[8]; 10000 nM
  cell viability: 41.6%
[9]; 1 nM
  cell viability: 97.8%
[9]; 10 nM
  cell viability: 93.7%
[9]; 100 nM
  cell viability: 94.1%
[9]; 1000 nM
  cell viability: 56%
[9]; 10000 nM
  cell viability: 19.4%
[10]; 1 nM
  cell viability: 84.5%
[10]; 10 nM
  cell viability: 98.7%
[10]; 100 nM
  cell viability: 97.6%
[10]; 1000 nM
  cell viability: 75.1%
[10]; 10000 nM
  cell viability: 15.8%
[11]; 1 nM
  cell viability: > 100%
[11]; 10 nM
  cell viability: > 100%
[11]; 100 nM
  cell viability: > 100%
[11]; 1000 nM
  cell viability: 75.6%
[11]; 10000 nM
  cell viability: 48.6%
[12]; 1 nM
  cell viability: > 100%
[12]; 10 nM
  cell viability: 100%
[12]; 100 nM
  cell viability: 99.9%
[12]; 1000 nM
  cell viability: 77.4%
[12]; 10000 nM
  cell viability: 12%
[13]; 1 nM
  cell viability: 89.2%
[13]; 10 nM
  cell viability: 85.5%
[13]; 100 nM
  cell viability: 86.6%
[13]; 1000 nM
  cell viability: 26.5%
[13]; 10000 nM
  cell viability: 1.65%
[14]; 1 nM
  cell viability: 79.5%
[14]; 10 nM
  cell viability: 52.7%
[14]; 100 nM
  cell viability: 65.3%
[14]; 1000 nM
  cell viability: 0.773%
[14]; 10000 nM
  cell viability: 1.6%
[15]; 1 nM
  cell viability: 87.1%
[15]; 10 nM
  cell viability: 68.6%
[15]; 100 nM
  cell viability: 42.7%
[15]; 1000 nM
  cell viability: < 0%
[15]; 10000 nM
  cell viability: < 0%

## Cn1cc(-c2ccncc2)c(-c2ccc(OCc3ccc4ccccc4n3)cc2)n1
[1]; 1 nM
  cell viability: 95%
[1]; 10 nM
  cell viability: 65%
[1]; 100 nM
  cell viability: 78.5%
[1]; 1000 nM
  cell viability: 44.2%
[1]; 10000 nM
  cell viability: 54.7%
[2]; 1 nM
  cell viability: 98.4%
[2]; 10 nM
  cell viability: 97%
[2]; 100 nM
  cell viability: > 100%
[2]; 1000 nM
  cell viability: 82.3%
[2]; 10000 nM
  cell viability: 87.9%
[3]; 1 nM
  cell viability: 26.3%
[3]; 10 nM
  cell viability: 1.33%
[3]; 100 nM
  cell viability: 18%
[3]; 1000 nM
  cell viability: 0.265%
[3]; 10000 nM
  cell viability: < 0%
[4]; 1 nM
  cell viability: 91.6%
[4]; 10 nM
  cell viability: 90.2%
[4]; 100 nM
  cell viability: > 100%
[4]; 1000 nM
  cell viability: 48.8%
[4]; 10000 nM
  cell viability: 29.9%
[5]; 1 nM
  cell viability: 94.1%
[5]; 10 nM
  cell viability: 88.2%
[5]; 100 nM
  cell viability: 95.8%
[5]; 1000 nM
  cell viability: 73.5%
[5]; 10000 nM
  cell viability: 68.8%
[6]; 1 nM
  cell viability: 94.3%
[6]; 10 nM
  cell viability: 84.7%
[6]; 100 nM
  cell viability: 97.6%
[6]; 1000 nM
  cell viability: 83.1%
[6]; 10000 nM
  cell viability: 75.2%
[7]; 1 nM
  cell viability: 88.2%
[7]; 10 nM
  cell viability: 87%
[7]; 100 nM
  cell viability: 87.9%
[7]; 1000 nM
  cell viability: 70.8%
[7]; 10000 nM
  cell viability: 53.5%
[8]; 1 nM
  cell viability: 81%
[8]; 10 nM
  cell viability: 89.1%
[8]; 100 nM
  cell viability: 93.4%
[8]; 1000 nM
  cell viability: 74.4%
[8]; 10000 nM
  cell viability: 83.6%
[9]; 1 nM
  cell viability: 82.2%
[9]; 10 nM
  cell viability: 91.2%
[9]; 100 nM
  cell viability: 97.1%
[9]; 1000 nM
  cell viability: 73%
[9]; 10000 nM
  cell viability: 73.6%
[10]; 1 nM
  cell viability: 93.5%
[10]; 10 nM
  cell viability: 82.6%
[10]; 100 nM
  cell viability: 90.3%
[10]; 1000 nM
  cell viability: 85.4%
[10]; 10000 nM
  cell viability: 97%
[11]; 1 nM
  cell viability: 94.2%
[11]; 10 nM
  cell viability: 94.8%
[11]; 100 nM
  cell viability: 98.5%
[11]; 1000 nM
  cell viability: 77.3%
[11]; 10000 nM
  cell viability: 80.2%
[12]; 1 nM
  cell viability: 99.1%
[12]; 10 nM
  cell viability: 98.1%
[12]; 100 nM
  cell viability: > 100%
[12]; 1000 nM
  cell viability: 87.9%
[12]; 10000 nM
  cell viability: 99.3%
[13]; 1 nM
  cell viability: 82.6%
[13]; 10 nM
  cell viability: 86.8%
[13]; 100 nM
  cell viability: 86.7%
[13]; 1000 nM
  cell viability: 50.1%
[13]; 10000 nM
  cell viability: 43.4%
[14]; 1 nM
  cell viability: 62.4%
[14]; 10 nM
  cell viability: 36.5%
[14]; 100 nM
  cell viability: 32.9%
[14]; 1000 nM
  cell viability: 3.45%
[14]; 10000 nM
  cell viability: 11.7%
[15]; 1 nM
  cell viability: 90.5%
[15]; 10 nM
  cell viability: 73.5%
[15]; 100 nM
  cell viability: 82.7%
[15]; 1000 nM
  cell viability: 17.1%
[15]; 10000 nM
  cell viability: 32.4%
